Experimental data published in ChEMBL document CHEMBL2375353, “Efficient induction of apoptosis in HeLa cells by a novel cationic porphycene photosensitizer” (Eur J Med Chem, 2013).
Activity calls are given as the source filed them. The rule behind the calls is not given here.

Experiments:
[1] = system: HeLa; assay: Induction of apoptosis in human HeLa cells assessed as volume reduction at 0.5 uM incubated for 18 hrs prior to red light irradiation measured after 3 hrs by neutral red staining; type: functional, cell-based
[2] = system: HeLa; assay: Induction of ROS generation in human HeLa cells assessed as cell survival at 0.5 uM incubated for 18 hrs prior to red light irradiation measured after 24 hrs by MTT assay; type: functional; conditions: light or radiation study, read-out: Activity
[3] = system: HeLa; assay: Induction of ROS generation in human HeLa cells assessed as cell survival at 0.5 uM incubated for 18 hrs followed by NaN3 addition 2 hrs prior to red light irradiation measured after 24 hrs by MTT assay; type: functional; conditions: light or radiation study, read-out: Activity
[4] = system: HeLa; assay: Induction of ROS generation in human HeLa cells assessed as singlet oxygen luminescence signal at 5 uM after 18 hrs; type: functional, cell-based
[5] = system: HeLa; assay: Induction of apoptosis in human HeLa cells assessed as trypsin-mediated cell detachment at 0.5 to 0.75 uM incubated for 18 hrs prior to red light irradiation by hemocytometer; type: functional, cell-based
[6] = system: HeLa; assay: Induction of apoptosis in human HeLa cells assessed as trypsin-mediated cell detachment incubated for 18 hrs prior to red light irradiation measured after 24 hrs by hemocytometer; type: functional, cell-based
[7] = system: HeLa; assay: Induction of apoptosis in human HeLa cells incubated for 18 hrs prior to red light irradiation measured after 24 hrs by trypan blue exclusion assay; type: functional, cell-based
[8] = system: HeLa; assay: Induction of apoptosis in human HeLa cells incubated for 18 hrs prior to red light irradiation measured after 3 hrs by trypan blue exclusion assay; type: functional, cell-based
[9] = system: HeLa; assay: Phototoxicity against human HeLa cells at 0.5 uM incubated for 18 hrs prior to red light irradiation measured after 3 to 24 hrs by trypan blue exclusion assay; type: functional, cell-based
[10] = system: HeLa; assay: Phototoxicity against human HeLa cells at 0.75 uM incubated for 18 hrs prior to red light irradiation measured after 3 to 24 hrs by trypan blue exclusion assay; type: functional, cell-based
[11] = system: HeLa; assay: Phototoxicity against human HeLa cells at 0.75 uM incubated for 18 hrs prior to 3.6 J/cm'2 red light irradiation by MTT assay; type: functional, cell-based
[12] = system: HeLa; assay: Phototoxicity against human HeLa cells assessed as cell viability at > 0.5 uM incubated for 18 hrs prior to 3.6 J/cm'2 red light irradiation by MTT assay; type: functional
[13] = system: HeLa; assay: Phototoxicity against human HeLa cells at 1 uM incubated for 18 hrs prior to 2.4 J/cm'2 red light irradiation by MTT assay; type: functional
[14] = system: HeLa; assay: Phototoxicity against human HeLa cells at 1 uM incubated for 18 hrs prior to 1.2 J/cm'2 red light irradiation by MTT assay; type: functional, cell-based
[15] = Cytotoxicity against human HeLa cells assessed as cell viability after 18 hrs by MTT assay in presence of 10 % FCS; type: cell-based; conditions: read-out: Activity
[16] = system: HeLa; assay: Darktoxicity against human HeLa cells at 1 uM after 18 hrs by MTT assay; type: cell-based
[17] = Cytotoxicity against human HeLa cells assessed as cell viability after 18 hrs by MTT assay in presence of 1 % FCS; type: cell-based; conditions: read-out: Activity
[18] = system: HeLa; assay: Darktoxicity against human HeLa cells at 0.75 uM after 18 hrs by MTT assay; type: cell-based
[19] = Darktoxicity against human HeLa cells assessed as cell survival at > 0.5 microM after 18 hrs by MTT assay; type: cell-based; conditions: read-out: Activity
[20] = system: HeLa; assay: Drug uptake in human HeLa cells assessed as localization to lysosome at 0.5 uM after 18 hrs by prior to UV irradiation by fluorescence microscopy; type: ADME, cell-based
[21] = system: HeLa; assay: Drug uptake in human HeLa cells at 0.75 uM after 18 hrs by fluorescence microscopy; type: ADME, cell-based
[22] = system: HeLa; assay: Drug uptake in human HeLa cells assessed as perinuclear localization at 0.5 uM incubated for 18 hrs prior to UV irradiation by fluorescence microscopy; type: ADME, cell-based
[23] = system: HeLa; assay: Ratio of drug uptake in human HeLa cells at 0.5 uM after 18 hrs to drug uptake in human HeLa cells at 0.5 uM after 1 hr; type: ADME, cell-based
[24] = system: HeLa; assay: Drug uptake in human HeLa cells at 0.5 uM after 18 hrs by flow cytometry; type: ADME, cell-based
[25] = system: HeLa; assay: Drug uptake in human HeLa cells at 0.5 uM by flow cytometry; type: ADME, cell-based; conditions: TDE = time-dependent effect
[26] = system: HeLa; assay: Induction of ROS generation in human HeLa cells assessed as singlet oxygen luminescence signal at 5 uM after 18 hrs in presence of sodium azide; type: functional, cell-based
[27] = system: HeLa; assay: Induction of apoptosis in human HeLa cells assessed as changes in microtubules and actin microfilament alteration at 0.75 to 0.5 uM after 18 hrs by immunostaining assay; type: cell-based
[28] = system: HeLa; assay: Induction of apoptosis in human HeLa cells assessed as microtubule alteration at 0.75 to 0.5 uM after 18 hrs by […]; type: cell-based
[29] = system: HeLa; assay: Induction of apoptosis in human HeLa cells assessed as cytochrome c relocation at 0.75 to 0.5 uM after 18 hrs by immunofluorescence method; type: cell-based
[30] = system: HeLa; assay: Induction of apoptosis in human HeLa cells at 0.75 to 0.5 uM after 18 hrs by Hoechst-33258 staining; type: cell-based
[31] = system: HeLa; assay: Induction of apoptosis in human HeLa cells at 0.75 to 0.5 uM after 18 hrs by neutral red staining; type: cell-based
[32] = system: HeLa; assay: Induction of apoptosis in human HeLa cells assessed as relocalization of proapoptotic Bax protein within mitochondria at 0.75 to 0.5 uM after 18 hrs by indirect immunofluorescence; type: cell-based

COCc1ccc(C2=Cc3nc2ccc2[nH]c(cc2-c2ccc(C[n+]4ccccc4)cc2)c2nc(ccc4[nH]c3cc4-c3ccc(C[n+]4ccccc4)cc3)C(c3ccc(C[n+]4ccccc4)cc3)=C2)cc1.[Br-].[Br-].[Br-]
Activity [1]: Active | viability at 0.5 µM [2]: 5.2% | viability at 0.5 µM [3]: 72% | Activity [4]: Active | Activity [5]: Active | Activity [6]: Dose-dependent effect | Activity [7]: Active | Activity [8]: Active | Activity [9]: Active | Activity [10]: Active | Activity [11]: Active | Activity [12]: <10% | Activity [13]: >50% | Activity [14]: Active | viability at 18 h [15]: 100% | Activity [16]: Toxic | viability at 18 h [17]: 98.6% | Activity [18]: Toxic | viability at 18 h [19]: > 90% | Drug uptake [20]: Active | Drug uptake [21]: Active | Drug uptake [22]: Active | Ratio [23]: 3 | Drug uptake [24]: Active | Drug uptake [25]: tde | Activity [26]: inactive | Activity [27]: Non-toxic | Activity [28]: Non-toxic | Activity [29]: Non-toxic | Activity [30]: Non-toxic | Activity [31]: Non-toxic | Activity [32]: Non-toxic
